Data on 30 molecules can be found in patent publication US6706709B2, “Indolinone derivatives as protein kinase/phosphatase inhibitors” (Sugen, Inc., priority 2000, dated 2004).

The structures appear in SMILES notation.

One assay concerns the target GST-Flk1 (UniProt P35918). In words: GST-FLK-1 bioassay (bio flkGST). In kind it is biochemical. Put shortly:
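ELISA with Sf9-expressed GST-Flk1cd (5 ng/well) phosphorylating plate-coated poly(Glu,Tyr) 4:1 in Hepes pH 7.5 with MnCl2 and ATP (2 μM as 4× stock), 15 min at room temperature; EDTA stop. Phosphotyrosine detected with PY99-HRP and ABTS at 410 nm.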

The next assay concerns the target T1, EGF Receptor (Homo sapiens, UniProt P00533).
T1 construct: expressed in transfected cells; host or cells: NIH 3T3/C7 (mouse fibroblasts engineered to express human EGF-R)
In words: bio EGF (EGF Receptor ELISA). In kind it is biochemical. Put shortly: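 Cells engineered to express human EGFR, seeded in 0.5% serum for ~40 h, then exposed to drug (stock diluted to 1:200 final, 1% DMSO) before 5 min EGF stimulation at 25 nM final. Lysates captured on anti-EGFR-coated plates, and phosphotyrosine detected by anti-pTyr/HRP ELISA at 410 nm. Percent inhibition calculated relative to control wells after negative-control subtraction.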

T1 sequence (P00533 25-1210): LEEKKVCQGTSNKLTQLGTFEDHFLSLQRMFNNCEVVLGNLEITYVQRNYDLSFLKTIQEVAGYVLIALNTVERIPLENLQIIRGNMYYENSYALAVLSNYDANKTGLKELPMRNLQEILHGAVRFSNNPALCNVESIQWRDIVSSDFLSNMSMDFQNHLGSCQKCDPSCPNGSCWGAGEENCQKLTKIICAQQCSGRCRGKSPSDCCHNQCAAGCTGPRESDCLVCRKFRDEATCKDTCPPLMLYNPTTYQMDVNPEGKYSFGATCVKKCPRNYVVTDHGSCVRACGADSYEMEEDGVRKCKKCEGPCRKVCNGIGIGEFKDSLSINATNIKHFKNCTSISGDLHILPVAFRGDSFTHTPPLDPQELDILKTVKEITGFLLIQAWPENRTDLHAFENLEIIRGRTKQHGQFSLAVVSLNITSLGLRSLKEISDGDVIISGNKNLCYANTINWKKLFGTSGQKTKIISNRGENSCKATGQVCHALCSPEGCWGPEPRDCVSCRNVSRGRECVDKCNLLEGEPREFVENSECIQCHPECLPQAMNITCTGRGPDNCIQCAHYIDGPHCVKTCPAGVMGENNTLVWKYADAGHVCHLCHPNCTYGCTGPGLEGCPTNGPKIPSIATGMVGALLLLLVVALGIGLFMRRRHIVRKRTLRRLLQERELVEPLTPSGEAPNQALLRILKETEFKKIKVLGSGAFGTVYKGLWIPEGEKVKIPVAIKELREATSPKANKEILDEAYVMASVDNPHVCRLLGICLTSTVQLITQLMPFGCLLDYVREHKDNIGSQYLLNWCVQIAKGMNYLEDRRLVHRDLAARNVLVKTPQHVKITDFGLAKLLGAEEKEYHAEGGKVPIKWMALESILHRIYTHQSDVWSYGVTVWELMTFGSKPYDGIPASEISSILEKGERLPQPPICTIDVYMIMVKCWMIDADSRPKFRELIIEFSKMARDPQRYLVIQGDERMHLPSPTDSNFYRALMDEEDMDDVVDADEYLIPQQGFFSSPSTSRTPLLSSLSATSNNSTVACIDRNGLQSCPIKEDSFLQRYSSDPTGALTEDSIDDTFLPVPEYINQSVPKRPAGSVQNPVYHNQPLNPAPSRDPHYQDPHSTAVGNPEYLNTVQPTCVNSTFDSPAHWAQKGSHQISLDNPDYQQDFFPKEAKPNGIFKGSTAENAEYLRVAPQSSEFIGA

Turning to `O=C1Nc2ccc(S(=O)(=O)Nc3ccc(Cl)cc3F)cc2C1=Cc1cc2cc(OCCN3CCCC3)ccc2[nH]1` [IN-049, 2-oxo-3-[5-(2-pyrrolidin-1-yl-ethoxy)-1H-indol-2-ylmethylene]-2,3-dihydro-1H-indole-5-sulfonic acid (4-chloro-2-fluoro-phenyl)-amide], the IC50 against GST-Flk1 was found to be 0.13 µM; against EGF Receptor, 4.38 µM.

In the case of `O=C1Nc2ccc(S(=O)(=O)Nc3ccccc3)cc2C1=Cc1cc2cc(OCCN3CCOCC3)ccc2[nH]1` [IN-056, 3-[5-(2-morpholin-4-yl-ethoxy)-1H-indol-2-ylmethylene]-2-oxo-2,3-dihydro-1H-indole-5-sulfonic acid phenylamide], the values for the IC50 against GST-Flk1 and against EGF Receptor were 9.96 µM and 15.5 µM, respectively.

For `O=C1Nc2ccc(S(=O)(=O)Nc3cccnc3)cc2C1=Cc1cc2cc(OCCN3CCOCC3)ccc2[nH]1` [IN-057, 3-[5-(2-morpholin-4-yl-ethoxy)-1H-indol-2-ylmethylene]-2-oxo-2,3-dihydro-1H-indole-5-sulfonic acid pyridin-3-ylamide], the IC50 against GST-Flk1 and on EGF Receptor was greater than 20 µM in each case.

For the molecule `NS(=O)(=O)c1ccc2c(c1)C(=Cc1ccc3[nH]ccc3c1)C(=O)N2` [IN-067, 3-(1H-indol-5-ylmethylene)-2-oxo-2,3-dihydro-1H-indole-5-sulfonic acid amide], the IC50 was 3.99 µM against GST-Flk1 and greater than 100 µM on EGF Receptor.

As for `CCN(CC)CCCc1ccc2[nH]c(C=C3C(=O)Nc4ccc(Br)cc43)cc2c1` [IN-002, 5-bromo-3-[5-(3-diethylamino-propyl)-1H-indol-2-ylmethylene]-1,3-dihydro-indol-2-one], the IC50 at GST-Flk1 came to 0.03 µM; on EGF Receptor it was 2.87 µM.

Consider `O=C1Nc2ccc(C(=O)O)cc2C1=Cc1cc2cc(OCCN3CCCC3)ccc2[nH]1` [IN-022, 2-oxo-3-[5-(2-pyrrolidin-1-yl-ethoxy)-1H-indol-2-ylmethylene]-2,3-dihydro-1H-indole-5-carboxylic acid], for which the IC50 at GST-Flk1 is 0.14 µM; at EGF Receptor, greater than 20 µM.

As for `CCN(CC)CCCc1ccc2[nH]c(C=C3C(=O)Nc4ccccc43)cc2c1` [IN-001, 3-[5-(3-diethylamino-propyl)-1H-indol-2-ylmethylene]-1,3-dihydro-indol-2-one], the IC50 at GST-Flk1 is 0.86 µM; at EGF Receptor, greater than 100 µM.

On to `CCN(CC)CCCc1ccc2[nH]c(C=C3C(=O)Nc4cc(-c5ccccc5)ccc43)cc2c1` [IN-003, 3-[5-(3-diethylamino-propyl)-1H-indol-2-ylmethylene]-6-phenyl-1,3-dihydro-indol-2-one], for which the IC50 at GST-Flk1 stood at 1.56 µM; at EGF Receptor it was 61.3 µM.

As to `COc1ccccc1-c1ccc2c(c1)NC(=O)C2=Cc1cc2cc(OCCN3CCOCC3)ccc2[nH]1` [IN-037, 6-(2-methoxy-phenyl)-3-[5-(2-morpholin-4-yl-ethoxy)-1H-indol-2-ylmethylene]-1,3-dihydro-indol-2-one], the figures for the IC50 against GST-Flk1 and against EGF Receptor were 4.38 µM and greater than 20 µM, respectively.

For the molecule `Cc1[nH]c2ccccc2c1C=C1C(=O)Nc2ccc(S(N)(=O)=O)cc21` [IN-066, 3-(2-methyl-1H-indol-3-ylmethylene)-2-oxo-2,3-dihydro-1H-indole-5-sulfonic acid amide], the IC50 against GST-Flk1 is greater than 20 µM; against EGF Receptor, greater than 100 µM.

As for `CN(C)S(=O)(=O)c1ccc2c(c1)C(=Cc1cc3cc(OCCN4CCOCC4)ccc3[nH]1)C(=O)N2` [IN-054, 3-[5-(2-morpholin-4-yl-ethoxy)-1H-indol-2-ylmethylene]-2-oxo-2,3-dihydro-1H-indole-5-sulfonic acid dimethylamide], the IC50 at GST-Flk1 is 4.28 µM; against EGF Receptor, greater than 20 µM.

Take `CNS(=O)(=O)c1ccc2c(c1)C(=Cc1cc3ccccc3[nH]1)C(=O)N2` [IN-071, 3-(1H-indol-2-ylmethylene)-2-oxo-2,3-dihydro-1H-indole-5-sulfonic acid methylamide]: the figures for the IC50 against GST-Flk1 and against EGF Receptor were 11.5 µM and 22 µM, respectively.

Regarding `O=C1Nc2ccccc2C1=Cc1cc2cc(OCCN3CCOCC3)ccc2[nH]1` [IN-007, 3-[5-(2-morpholin-4-yl-ethoxy)-1H-indol-2-ylmethylene]-1,3-dihydro-indol-2-one], the IC50 came to 0.4 µM against GST-Flk1 and 37.4 µM at EGF Receptor.

For the molecule `CN(C)S(=O)(=O)c1ccc2c(c1)C(=Cc1cc3ccccc3[nH]1)C(=O)N2` [IN-075, 3-(1H-indol-2-ylmethylene)-2-oxo-2,3-dihydro-1H-indole-5-sulfonic acid dimethylamide], the figures for the IC50 against GST-Flk1 and at EGF Receptor were 6.51 µM and greater than 100 µM, respectively.

Take `CCN(CC)CCOc1ccc2[nH]c(C=C3C(=O)Nc4ccc(Br)cc43)cc2c1` [IN-017, 5-bromo-3-[5-(2-diethylamino-ethoxy)-1H-indol-2-ylmethylene]-1,3-dihydro-indol-2-one]: the figures for the IC50 against GST-Flk1 and at EGF Receptor were 0.01 µM and 4.67 µM, respectively.

In the case of `O=C1Nc2ccc(S(=O)(=O)N3CCc4ccccc43)cc2C1=Cc1cc2cc(OCCN3CCOCC3)ccc2[nH]1` [IN-058, 5-(2,3-dihydro-indole-1-sulfonyl)-3-[5-(2-morpholin-4-yl-ethoxy)-1H-indol-2-ylmethylene]-1,3-dihydro-indol-2-one], the IC50 was 8.49 µM at GST-Flk1 and greater than 20 µM against EGF Receptor.

Take `NS(=O)(=O)c1ccc2c(c1)C(=Cc1cc3cc(OCCN4CCCC4)ccc3[nH]1)C(=O)N2` [IN-039, 2-oxo-3-[5-(2-pyrrolidin-1-yl-ethoxy)-1H-indol-2-ylmethylene]-2,3-dihydro-1H-indole-5-sulfonic acid amide]: the values for the IC50 against GST-Flk1 and at EGF Receptor were 0.17 µM and greater than 100 µM, respectively.

For the molecule `O=C1Nc2ccccc2C1=Cc1cc2cc(OCCN3CCCC3)ccc2[nH]1` [IN-013, 3-[5-(2-pyrrolidin-1-yl-ethoxy)-1H-indol-2-ylmethylene]-1,3-dihydro-indol-2-one], the IC50 amounted to 0.1 µM on GST-Flk1 and 41.3 µM at EGF Receptor.

With `COc1cccc(-c2ccc3c(c2)NC(=O)C3=Cc2cc3cc(OCCN4CCOCC4)ccc3[nH]2)c1` [IN-036, 6-(3-methoxy-phenyl)-3-[5-(2-morpholin-4-yl-ethoxy)-1H-indol-2-ylmethylene]-1,3-dihydro-indol-2-one], the IC50 against GST-Flk1 and on EGF Receptor was greater than 20 µM throughout.

For the molecule `O=C1Nc2ccc(Br)cc2C1=Cc1cc2cc(OCCN3CCCC3)ccc2[nH]1` [IN-014, 5-bromo-3-[5-(2-pyrrolidin-1-yl-ethoxy)-1H-indol-2-ylmethylene]-1,3-dihydro-indol-2-one], the IC50 against GST-Flk1 was found to be 0.003 µM; at EGF Receptor, 43.5 µM.

Turning to `CN(C)S(=O)(=O)c1ccc2c(c1)C(=Cc1c[nH]c3ccccc13)C(=O)N2` [IN-072, 3-(1H-indol-3-ylmethylene)-2-oxo-2,3-dihydro-1H-indole-5-sulfonic acid dimethylamide], the IC50 against GST-Flk1 was greater than 20 µM; against EGF Receptor, greater than 100 µM.

With `O=C1Nc2ccc(S(=O)(=O)N3CCc4ccccc4C3)cc2C1=Cc1cc2cc(OCCN3CCOCC3)ccc2[nH]1` [IN-063, 5-(3,4-dihydro-1H-isoquinoline-2-sulfonyl)-3-[5-(2-morpholin-4-yl-ethoxy)-1H-indol-2-ylmethylene]-1,3-dihydro-indol-2-one], the results for the IC50 against GST-Flk1 and at EGF Receptor were 14.3 µM and greater than 20 µM, respectively.

For the molecule `COc1ccc(-c2ccc3c(c2)NC(=O)C3=Cc2cc3cc(OCCN4CCCC4)ccc3[nH]2)cc1` [IN-026, 6-(4-methoxy-phenyl)-3-[5-(2-pyrrolidin-1-yl-ethoxy)-1H-indol-2-ylmethylene]-1,3-dihydro-indol-2-one], the IC50 against GST-Flk1 was 0.76 µM; against EGF Receptor it was greater than 20 µM.

On to `CNS(=O)(=O)c1ccc2c(c1)C(=Cc1c(C)[nH]c3ccccc13)C(=O)N2` [IN-069, 3-(2-methyl-1H-indol-3-ylmethylene)-2-oxo-2,3-dihydro-1H-indole-5-sulfonic acid methylamide], for which the IC50 is 12.8 µM at GST-Flk1 and greater than 100 µM on EGF Receptor.

For the molecule `CCN(CC)CCOc1ccc2[nH]c(C=C3C(=O)Nc4ccccc43)cc2c1` [IN-016, 3-[5-(2-diethylamino-ethoxy)-1H-indol-2-ylmethylene]-1,3-dihydro-indol-2-one], the IC50 against GST-Flk1 was 0.05 µM; on EGF Receptor, greater than 10 µM.

In the case of `COc1ccccc1-c1ccc2c(c1)NC(=O)C2=Cc1cc2cc(OCCN3CCCC3)ccc2[nH]1` [IN-028, 6-(2-methoxy-phenyl)-3-[5-(2-pyrrolidin-1-yl-ethoxy)-1H-indol-2-ylmethylene]-1,3-dihydro-indol-2-one], the figures for the IC50 against GST-Flk1 and at EGF Receptor were 0.66 µM and 6.06 µM, respectively.

`O=C1Nc2ccc(-c3ccccc3)cc2C1=Cc1cc2cc(OCCN3CCOCC3)ccc2[nH]1` [IN-032, 3-[5-(2-morpholin-4-yl-ethoxy)-1H-indol-2-ylmethylene]-5-phenyl-1,3-dihydro-indol-2-one]: the IC50 at GST-Flk1 is 1.47 µM; at EGF Receptor, greater than 20 µM.

In the case of `CN(C)CCOc1ccc2[nH]c(C=C3C(=O)Nc4ccccc43)cc2c1` [IN-010, 3-[5-(2-dimethylamino-ethoxy)-1H-indol-2-ylmethylene]-1,3-dihydro-indol-2-one], the IC50 stood at 0.35 µM at GST-Flk1 and 88.8 µM against EGF Receptor.

With `CN(C)CCOc1ccc2[nH]c(C=C3C(=O)Nc4cc(-c5ccccc5)ccc43)cc2c1` [IN-012, 3-[5-(2-dimethylamino-ethoxy)-1H-indol-2-ylmethylene]-6-phenyl-1,3-dihydro-indol-2-one], the values for the IC50 at GST-Flk1 and against EGF Receptor were 1.95 µM and greater than 100 µM, respectively.

For the molecule `CN(C)CCOc1ccc2[nH]c(C=C3C(=O)Nc4ccc(Br)cc43)cc2c1` [IN-011, 5-bromo-3-[5-(2-dimethylamino-ethoxy)-1H-indol-2-ylmethylene]-1,3-dihydro-indol-2-one], the IC50 against GST-Flk1 was found to be 0.52 µM; at EGF Receptor, 1.36 µM.
